Reference: PubChem BioAssay AID624323 (Sanford-Burnham Center for Chemical Genomics, 2012)
Values after ≈ are worked out from the molar mass of the structure shown. Active and inactive are the calls of the source. No rule for the calls is given here.

Tested on: aqueous buffer solubility, pH 5.0/6.2/7.4
Assay: aqueous buffer solubility at three pH values, ADME assay, biophysical, set 2 (AID 624323)
Conditions: at 100 µM, stronger effect = higher value
[1] = measured here: solubility at pH 5.0
[2] = measured here: solubility at pH 6.2

| Compound | solubility | solubility [1] | solubility [2] |
| --- | --- | --- | --- |
| CC[C@H]1CN2CCc3cc(OC)c(OC)cc3[C@@H]2C[C@@H]1C[C@H]1NCCc2cc(OC)c(OC)cc21 | > 55 µg/mL | > 55 µg/mL | > 55 µg/mL |
| COc1cc(NC(=O)c2cc(C3CC3)on2)c(OC)cc1Cl | 0.06 µg/mL (inactive) (≈ 0.186 µM) | < 0.01 µg/mL | 0.05 µg/mL (≈ 0.155 µM) |
| CCOc1ccc(-c2nc(-c3ccncc3)no2)cc1OCC | 1.3 µg/mL (inactive) (≈ 4.18 µM) | 1.1 µg/mL (≈ 3.53 µM) | 1.3 µg/mL (≈ 4.18 µM) |
| CSc1nc(-c2ccc(C)cc2)nc(C(Cl)Cl)n1 | 0.01 µg/mL (inactive) (≈ 0.0333 µM) | 0.02 µg/mL (≈ 0.0666 µM) | 0.01 µg/mL (≈ 0.0333 µM) |
| COc1ccc(OC)c(S(=O)(=O)Nc2cnc3ccccc3c2)c1 | 25.8 µg/mL (≈ 74.9 µM) | 20.8 µg/mL (≈ 60.4 µM) | 25.7 µg/mL (≈ 74.6 µM) |
| O=C(O)c1ccccc1OCc1ccccc1Br | > 30 µg/mL | > 30 µg/mL | > 30 µg/mL |
| Cc1cc2c(s1)c1cnn(Cc3ccccc3F)c(=O)c1n2C | 0.11 µg/mL (inactive) (≈ 0.336 µM) | 0.16 µg/mL (≈ 0.489 µM) | 0.19 µg/mL (≈ 0.58 µM) |
| COc1ccc(S(=O)(=O)N2CCN(S(=O)(=O)c3ccc4c(c3)OCCO4)CC2)cc1 | < 0.1 µg/mL (inactive) | 0.13 µg/mL (≈ 0.286 µM) | < 0.1 µg/mL |
| Cc1ccc(-n2c(N)c(C#N)c(-c3ccccc3)c(C#N)c2=O)cc1 | 0.84 µg/mL (inactive) (≈ 2.57 µM) | 0.79 µg/mL (≈ 2.42 µM) | 0.93 µg/mL (≈ 2.85 µM) |
| CN(C)c1oc(-c2ccc(OCc3ccc(Cl)cc3)cc2)nc1C#N | 0.08 µg/mL (inactive) (≈ 0.226 µM) | 0.17 µg/mL (≈ 0.48 µM) | < 0.01 µg/mL |
| Cc1ccc(C)c(NS(=O)(=O)c2cc(C(=O)Nc3ccccc3-c3ccccc3)ccc2Cl)c1 | 0.81 µg/mL (inactive) (≈ 1.65 µM) | < 0.1 µg/mL | < 0.1 µg/mL |
| Cc1ccc(C(=O)n2c3ccccc3c3ccccc32)cc1 | < 0.01 µg/mL (inactive) | < 0.01 µg/mL | < 0.01 µg/mL |
| C/C=C/Cn1c(SCCCc2ccccc2)nc2c1c(=O)[nH]c(=O)n2C | 0.39 µg/mL (inactive) (≈ 1.05 µM) | 0.24 µg/mL (≈ 0.648 µM) | 0.31 µg/mL (≈ 0.837 µM) |
| CN(C)C1=C(Cl)C(=O)N(c2ccc(Cl)c(Cl)c2)C1=O | < 0.01 µg/mL (inactive) | 0.06 µg/mL (≈ 0.188 µM) | 0.12 µg/mL (≈ 0.375 µM) |
| CCc1nnc(NC(=O)c2ccc(NS(=O)(=O)c3ccccc3)cc2)s1 | 0.78 µg/mL (inactive) (≈ 2.01 µM) | 0.09 µg/mL (≈ 0.232 µM) | 0.16 µg/mL (≈ 0.412 µM) |
| O=c1oc2c(O)c(O)cc3c(=O)oc4c(O)c(O)cc1c4c23 | > 30 µg/mL | 7.9 µg/mL (≈ 26.1 µM) | > 30 µg/mL |
| c1ccc(CC2CCN(c3ncnc4sccc34)CC2)cc1 | < 0.01 µg/mL (inactive) | < 0.01 µg/mL | 0.01 µg/mL (≈ 0.0323 µM) |

| Compound | solubility | solubility [1] | solubility [2] |
| --- | --- | --- | --- |
| Cc1ccc(NC(=O)CCC(=O)N/N=C/c2ccc([N+](=O)[O-])o2)cc1C | 0.29 µg/mL (inactive) (≈ 0.809 µM) | 0.19 µg/mL (≈ 0.53 µM) | 0.3 µg/mL (≈ 0.837 µM) |
| CS(=O)(=O)c1ccc(C(=O)OCC(=O)NC23CC4CC(CC(C4)C2)C3)cc1[N+](=O)[O-] | 3 µg/mL (inactive) (≈ 6.87 µM) | 1.8 µg/mL (≈ 4.12 µM) | 2.5 µg/mL (≈ 5.73 µM) |
| CCCC(=O)Nc1cccc(NC(=O)c2ccccc2Br)c1 | > 36 µg/mL | > 36 µg/mL | > 36 µg/mL |
| O=c1c(O)c(-c2cc(O)c(O)c(O)c2)oc2cc(O)cc(O)c12 | 1.7 µg/mL (inactive) (≈ 5.34 µM) | 3.2 µg/mL (≈ 10.1 µM) | 5.3 µg/mL (≈ 16.7 µM) |
| O=C(O)CCC(NS(=O)(=O)c1ccc(-c2ccccc2)cc1)C(=O)O (centres undefined) | > 36 µg/mL | > 36 µg/mL | > 36 µg/mL |
| COc1ccc(C2CC(c3ccccc3)=NN2c2ccc(S(N)(=O)=O)cc2)cc1 (centres undefined) | 0.05 µg/mL (inactive) (≈ 0.123 µM) | 0.06 µg/mL (≈ 0.147 µM) | 0.04 µg/mL (≈ 0.0982 µM) |
| Cc1cc(-c2nnc3n2CCCCC3)c(C)n1-c1ccccc1 | > 30 µg/mL | > 30 µg/mL | > 30 µg/mL |
| Cc1ccnc(NC(=O)CCCOc2cc(=O)n(C)c3ccccc23)c1 | 9.1 µg/mL (inactive) (≈ 25.9 µM) | 19 µg/mL (≈ 54.1 µM) | 9.3 µg/mL (≈ 26.5 µM) |
| Cc1cc(C(=O)CN2C(=O)CCC2=O)c(C)n1Cc1ccccc1 | > 32 µg/mL | 25.2 µg/mL (≈ 77.7 µM) | 22.6 µg/mL (≈ 69.7 µM) |
| c1ccc2c(Nc3nnc(-c4ccncc4)s3)cccc2c1 | 3.5 µg/mL (inactive) (≈ 11.5 µM) | 3.3 µg/mL (≈ 10.8 µM) | 3.5 µg/mL (≈ 11.5 µM) |
| CC1CCCN(C(C(=O)Nc2ccc3c(c2)OCCO3)c2ccccc2)C1 (centres undefined) | 1.7 µg/mL (inactive) (≈ 4.64 µM) | > 36 µg/mL | > 36 µg/mL |
| CCOc1ccc(NC(=S)N2CCC(C(O)(c3ccccc3)c3ccccc3)CC2)cc1 | 0.37 µg/mL (inactive) (≈ 0.828 µM) | 1.1 µg/mL (≈ 2.46 µM) | 0.8 µg/mL (≈ 1.79 µM) |
| O=c1[nH]c2c(s1)C(c1cccnc1)C1C3CCC(C3)C1S2 (centres undefined) | 21.7 µg/mL (≈ 68.6 µM) | 24 µg/mL (≈ 75.8 µM) | 21.8 µg/mL (≈ 68.9 µM) |
| O=c1[nH]c(SCc2ccc(Cl)cc2)nc2c1CCC2 | 0.94 µg/mL (inactive) (≈ 3.21 µM) | 0.45 µg/mL (≈ 1.54 µM) | 0.52 µg/mL (≈ 1.78 µM) |
| CCCOc1ccc(-c2nc(OC)c3ccccc3n2)cc1 | 0.02 µg/mL (inactive) (≈ 0.0679 µM) | 0.05 µg/mL (≈ 0.17 µM) | < 0.01 µg/mL |
| CN1CSC(=S)N(C)C1 | > 16 µg/mL | 12.4 µg/mL (≈ 76.4 µM) | 12.7 µg/mL (≈ 78.3 µM) |
